Reference: patent US8846719B2, “Isoxazolo-pyridine derivatives” (Roche Palo Alto LLC, priority 2007, dated 2014)
pKi: −log10 of the molar value.

Target: human GABA A receptor α5β3γ2 (Homo sapiens (Human), UniProt P18507+P31644)
Test: [3H]flumazenil competition binding assay, human GABA A α5β3γ2 receptors expressed in HEK293 cells
Conditions: human receptor; displacement of [3H]flumazenil (0.5 nM); means of two determinations; read-out: hKi GABAAa5
Protocol: The affinity of compounds at GABA A receptor subtypes was measured by competition for [3H]flumazenil (85 Ci/mmol; Roche) binding to HEK293 cells expressing rat (stably transfected) or human (transiently transfected) receptors of composition α1β3γ2, α2β3γ2, α3β3γ2 and α5β3γ2.
Cell pellets were suspended in Krebs-tris buffer (4.8 mM KCl, 1.2 mM CaCl2, 1.2 mM MgCl2, 120 mM NaCl, 15 mM Tris; pH 7.5; binding assay buffer), homogenized by polytron for ca. 20 sec on ice and centrifuged for 60 min at 4° C. (50000 g; Sorvall, rotor: SM24=20000 rpm). The cell pellets were resuspended in Krebs-tris buffer and homogenized by polytron for ca. 15 sec on ice. Protein was measured (Bradford method, Bio-Rad) and aliquots of 1 mL were prepared and stored at −80° C.
Assays were incubated to equilibrium for 1 hour at 4° C. and harvested onto GF/C uni-filters (Packard) by filtration using a Packard harvester and washing with ice-cold wash buffer (50 mM Tris; pH 7.5). After drying, filter-retained radioactivity was detected by liquid scintillation counting. Ki values were calculated using Excel-Fit (Microsoft) and are the means of two determinations.

Row | Compound | pKi
1 | Cc1onc(-c2ccc(Cl)cc2)c1COc1ccc(C(=O)N2CCS(=O)(=O)CC2)cn1 [Example 122, {6-[3-(4-Chloro-phenyl)-5-methyl-isoxazol-4-ylmethoxy]-pyridin-3-yl}-(1,1-dioxo-1,6-thiomorpholin-4-yl)-methanone] | 8.54
2 | Cc1onc(-c2ccccc2)c1CNc1ccc(C(=O)NC2CCOCC2)cn1 [Example 166, 6-[(5-Methyl-3-phenyl-isoxazol-4-ylmethyl)-amino]-N-(tetrahydro-pyran-4-yl)-nicotinamide] | 8.06
3 | Cc1onc(-c2ccc(F)cc2)c1CNc1ccc(C(=O)NC2CCOCC2)cn1 [Example 177, 6-{[3-(4-Fluoro-phenyl)-5-methyl-isoxazol-4-ylmethyl]-amino}-N-(tetrahydro-pyran-4-yl)-nicotinamide] | 8.19
4 | Cc1onc(-c2ccc(Cl)cc2)c1COc1ccc(C(=O)N[C@H]2CCC[C@@H]2O)cn1 (single isomer, unassigned) [Example 260, 6-[3-(4-Chloro-phenyl)-5-methyl-isoxazol-4-ylmethoxy]-N-((1S,2S)-2-hydroxy-cyclopentyl)-nicotinamide or 6-[3-(4-chloro-phenyl)-5-methyl-isoxazol-4-ylmethoxy]-N-((1R,2R)-2-hydroxy-cyclopentyl)-nicotinamide] | 9.30
5 | Cc1onc(-c2ccccc2)c1COc1ccc(C(=O)Nc2ccn(C)n2)cn1 [Example 244, 6-(5-Methyl-3-phenyl-isoxazol-4-ylmethoxy)-N-(1-methyl-1H-pyrazol-3-yl)-nicotinamide] | 8.29
6 | O=C(NC1CCOCC1)c1ccc(OCc2c(-c3ccccc3)noc2C(F)(F)F)nc1 [Example 135, 6-(3-Phenyl-5-trifluoromethyl-isoxazol-4-ylmethoxy)-N-(tetrahydro-pyran-4-yl)-nicotinamide] | 7.66
7 | Cc1onc(-c2ccccc2)c1COc1ccc(C(=O)Nc2cnn(C)c2)cn1 [Example 237, 6-(5-Methyl-3-phenyl-isoxazol-4-ylmethoxy)-N-(1-methyl-1H-pyrazol-4-yl)-nicotinamide] | 8.96
8 | Cc1onc(-c2ccc(Cl)cn2)c1COc1ccc(C(=O)NC(C)(C)CO)cn1 [Example 305, 6-[3-(5-Chloro-pyridin-2-yl)-5-methyl-isoxazol-4-ylmethoxy]-(2-hydroxy-1,1-dimethyl-ethyl)-nicotinamide] | 9.22
9 | Cc1onc(-c2ccccc2)c1COc1ccc(C(=O)NC2CC(OCc3ccccc3)C2)cn1 (stereo not drawn) [Example 230, (cis or trans)-N-(3-Benzyloxy-cyclobutyl)-6-(5-methyl-3-phenyl-isoxazol-4-ylmethoxy)-nicotinamide] | 8.92

Other lines, results leading:

Row | pKi | Compound
10 | 8.49 | Cc1onc(-c2cccc(F)c2)c1COc1ccc(C(=O)NCC2CC2)cn1 [Example 90, N-Cyclopropylmethyl-6-[3-(3-fluoro-phenyl)-5-methyl-isoxazol-4-ylmethoxy]-nicotinamide]
11 | 8.64 | Cc1onc(-c2ccccc2)c1COc1ccc(C(=O)NCC(O)C(F)(F)F)cn1 (stereo not drawn) [Example 186, 6-(5-Methyl-3-phenyl-isoxazol-4-ylmethoxy)-N-(3,3,3-trifluoro-2-hydroxy-propyl)-nicotinamide]
12 | 8.00 | Cc1onc(-c2ccccc2)c1COc1ccc(C(=O)NC(C)(C)CO)cn1 [Example 183, N-(2-Hydroxy-1,1-dimethyl-ethyl)-6-(5-methyl-3-phenyl-isoxazol-4-ylmethoxy)-nicotinamide]
13 | 8.66 | Cc1onc(-c2ccccc2)c1COc1ccc(C(=O)NCCCO)cn1 [Example 219, N-(3-Hydroxy-propyl)-6-(5-methyl-3-phenyl-isoxazol-4-ylmethoxy)-nicotinamide]
14 | 8.11 | Cc1onc(-c2cccc(Cl)c2)c1COc1ccc(C(=O)NCC(F)(F)F)cn1 [Example 98, 6-[3-(3-Chloro-phenyl)-5-methyl-isoxazol-4-ylmethoxy]-N-(2,2,2-trifluoro-ethyl)-nicotinamide]
15 | 8.64 | Cc1onc(-c2ccccc2)c1COc1ccc(C(=O)NCCC(C)O)cn1 (stereo not drawn) [Example 215, N-(3-Hydroxy-butyl)-6-(5-methyl-3-phenyl-isoxazol-4-ylmethoxy)-nicotinamide]
